Assay results taken from patent US20130023645A1 (priority 2006, published 2013).
Values joined by “and” are separate entries in the source; they are usually repeats but may differ in a detail not shown here. Equal values may be shown once. Positions of bridges follow the written chain, without caps; N, C: chain ends. Non-standard residues stand in square brackets, D forms with d. Residues, ends and D or L forms follow the SMILES beside them. ξ: configuration not given here. Ala(indol-2-yl) = N[C@@H](Cc1cc2ccccc2[nH]1)C(=O)O; AllylGly = C=CC[C@H](N)C(=O)O; ξP = O=C(O)C1CCCN1

Target: T1, neuronal-type nicotinic receptors (Bos taurus, UniProt Q07263+Q8SPU6)
T1 construct: monolayer cultures of bovine adrenal chromaffin cells; endogenous in cells; host or cells: bovine adrenal chromaffin cells (primary monolayer cultures)
Type: cell-based, bovine

T1 sequence (Q07263 22-495): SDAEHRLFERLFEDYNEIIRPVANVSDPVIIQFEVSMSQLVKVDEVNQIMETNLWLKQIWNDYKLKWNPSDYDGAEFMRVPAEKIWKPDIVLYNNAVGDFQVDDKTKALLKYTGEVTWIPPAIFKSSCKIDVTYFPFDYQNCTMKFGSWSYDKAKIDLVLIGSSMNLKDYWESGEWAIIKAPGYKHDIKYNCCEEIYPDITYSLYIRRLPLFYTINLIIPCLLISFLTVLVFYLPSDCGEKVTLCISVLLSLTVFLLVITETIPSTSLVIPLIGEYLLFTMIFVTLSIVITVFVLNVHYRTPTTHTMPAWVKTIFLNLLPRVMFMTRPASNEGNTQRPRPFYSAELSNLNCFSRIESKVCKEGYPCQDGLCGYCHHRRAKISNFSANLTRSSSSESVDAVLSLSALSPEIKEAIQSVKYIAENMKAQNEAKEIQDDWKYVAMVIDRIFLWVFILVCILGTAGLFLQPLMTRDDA
T1 sequence (Q8SPU6 20-496): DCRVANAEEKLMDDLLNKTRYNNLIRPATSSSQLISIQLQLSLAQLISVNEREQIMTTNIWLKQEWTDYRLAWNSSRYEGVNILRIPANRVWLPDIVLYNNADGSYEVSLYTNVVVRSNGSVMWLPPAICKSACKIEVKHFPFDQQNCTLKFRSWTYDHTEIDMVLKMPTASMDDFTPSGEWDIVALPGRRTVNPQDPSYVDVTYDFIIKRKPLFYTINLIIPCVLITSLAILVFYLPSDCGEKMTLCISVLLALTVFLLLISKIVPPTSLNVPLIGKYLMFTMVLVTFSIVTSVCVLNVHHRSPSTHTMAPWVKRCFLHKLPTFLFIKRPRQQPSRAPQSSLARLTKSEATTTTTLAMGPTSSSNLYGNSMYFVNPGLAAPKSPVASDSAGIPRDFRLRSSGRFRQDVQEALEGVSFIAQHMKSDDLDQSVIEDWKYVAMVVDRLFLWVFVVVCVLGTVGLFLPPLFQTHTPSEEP

For `C[C@@H]1NC(=O)[C@@H]2CSSC[C@H](NC(=O)CN)C(=O)N[C@@H](CC=CC[C@@H](C(N)=O)NC(=O)[C@H](CCCNC(=N)N)NC(=O)[C@H](Cc3cc4ccccc4[nH]3)NC1=O)C(=O)N[C@@H](CO)C(=O)N[C@@H](CC(=O)O)C(=O)N1CCCC1C(=O)N[C@@H](CCCNC(=N)N)C(=O)N2` (stereo partly drawn) [compound 119, [2,8]-Cystino-[3,12]-Dicarba Conotoxin ImI: NH2-Gly-Cys-c[Hag-Ser-Asp-Pro-Arg-Cys-Ala-Trp-Arg-Hag]-NH2] (H-GC[AllylGly]SD[ξP]RCA[Ala(indol-2-yl)]R[AllylGly]-NH2; disulfide 2-8; staple 3-12), the “Adrenaline Release, % control” value was 83.420% and 58.888%, the “Adrenaline Release, mean” value was 3.77% and 2.76% and the “Adrenaline Release, single determinations (1st-4th)” value was 3.31% and 3.67% and 4.14% and 3.98% and 2.32% and 2.95% and 2.76% and 3.02%. The “Noradrenaline Release, % control” value was 55.971% and 78.400%, the “Noradrenaline Release, % inhibition” value was 21.600% and the “Noradrenaline Release, mean” value was 4.15% and 5.52%. The “Noradrenaline Release, single determinations (1st-4th)” value was 3.22% and 4.58% and 3.99% and 4.81% and 4.89% and 5.75% and 5.73% and the “noradrenaline released, basal release (0.72%) subtracted” value was 3.43%.
